± gives the expanded uncertainty stated by the source.
Experiment: mn = molality of the nth substance listed, in mol/kg
Conditions: 101 kPa, Liquid, m1 = 0.512

| Compound | mass density (298.15 K) | mass density (303.15 K) | mass density (308.15 K) | mass density (313.15 K) | mass density (318.15 K) | mass density (323.15 K) |
| --- | --- | --- | --- | --- | --- | --- |
| O=S(=O)([O-])[O-].[K+].[K+] [potassium sulfate] + O | 1063.81 ± 0.3 kg/m3 | 1062.02 ± 0.29 kg/m3 | 1060.06 ± 0.29 kg/m3 | 1057.74 ± 0.29 kg/m3 | 1055.14 ± 0.28 kg/m3 | 1052.95 ± 0.28 kg/m3 |
| O=[N+]([O-])[O-].[K+] [potassium nitrate] + O | 1027.98 ± 0.22 kg/m3 | 1026.22 ± 0.22 kg/m3 | 1024.1 ± 0.21 kg/m3 | 1022.05 ± 0.21 kg/m3 | 1020.2 ± 0.21 kg/m3 | 1018.2 ± 0.2 kg/m3 |

Source: the NIST ThermoML archive (doi:10.1021/je300083m)
